Tested on: 996289-038-R-J1-PDC complex spheroid viability
Test: Anticancer human tumor 996289-038-R-J1-PDC patient-derived colon adenocarcinoma cell line growth inhibition [CLK]
Conditions: for IC50: curve of first compound; for viability, T/C: stronger effect = lower value
Method in brief: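 Multi-cell-type spheroids combined patient-derived tumor cells with HUVEC endothelial cells and human mesenchymal stem cells. Paired agents were dosed in half-log steps down from about clinical Cmax, or from 10 microM where Cmax was unknown.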
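Further: spheroids exposed to the agents for 7 days before readout.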

## COC1C=CCC(C)C(C)S(=O)(=O)NC(=O)c2ccc3c(c2)N(CC2CCC21)CC1(CCCc2cc(Cl)ccc21)CO3 (centres undefined) + CNC(=O)c1ccc(Nc2nc(OC3CCCC3)c3c(-c4ccc5nc(C)oc5c4)c[nH]c3n2)c(OC)c1
Second compound 0.0316 µM
  IC50: 6740 nM
Second compound 0.1 µM
  IC50: 6730 nM
Second compound 0.316 µM
  IC50: 2940 nM
Second compound 1 µM
  IC50: 1180 nM
Second compound 3.16 µM
  IC50: 466 nM
Second compound 10 µM
  IC50: 519 nM
Second compound 0.0316 µM, first compound 0.0316 µM
  viability, T/C: 131%
Second compound 0.0316 µM, first compound 0.1 µM
  viability, T/C: 119%
Second compound 0.0316 µM, first compound 0.316 µM
  viability, T/C: 109%
Second compound 0.0316 µM, first compound 1 µM
  viability, T/C: 92.1%
Second compound 0.0316 µM, first compound 3.16 µM
  viability, T/C: 74.6%
Second compound 0.0316 µM, first compound 10 µM
  viability, T/C: 37.2%
Second compound 0.1 µM, first compound 0.0316 µM
  viability, T/C: 124%
Second compound 0.1 µM, first compound 0.1 µM
  viability, T/C: 117%
Second compound 0.1 µM, first compound 0.316 µM
  viability, T/C: 109%
Second compound 0.1 µM, first compound 1 µM
  viability, T/C: 85.9%
Second compound 0.1 µM, first compound 3.16 µM
  viability, T/C: 72.2%
Second compound 0.1 µM, first compound 10 µM
  viability, T/C: 39.1%
Second compound 0.316 µM, first compound 0.0316 µM
  viability, T/C: 91.1%
Second compound 0.316 µM, first compound 0.1 µM
  viability, T/C: 78.1%
Second compound 0.316 µM, first compound 0.316 µM
  viability, T/C: 74.3%
Second compound 0.316 µM, first compound 1 µM
  viability, T/C: 57.5%
Second compound 0.316 µM, first compound 3.16 µM
  viability, T/C: 52.2%
Second compound 0.316 µM, first compound 10 µM
  viability, T/C: 36.4%
Second compound 1 µM, first compound 0.0316 µM
  viability, T/C: 71.3%
Second compound 1 µM, first compound 0.1 µM
  viability, T/C: 65.2%
Second compound 1 µM, first compound 0.316 µM
  viability, T/C: 58.8%
Second compound 1 µM, first compound 1 µM
  viability, T/C: 49.4%
Second compound 1 µM, first compound 3.16 µM
  viability, T/C: 45.6%
Second compound 1 µM, first compound 10 µM
  viability, T/C: 34.4%
Second compound 3.16 µM, first compound 0.0316 µM
  viability, T/C: 70.1%
Second compound 3.16 µM, first compound 0.1 µM
  viability, T/C: 59%
Second compound 3.16 µM, first compound 0.316 µM
  viability, T/C: 52.2%
Second compound 3.16 µM, first compound 1 µM
  viability, T/C: 45.7%
Second compound 3.16 µM, first compound 3.16 µM
  viability, T/C: 40.4%
Second compound 3.16 µM, first compound 10 µM
  viability, T/C: 33.1%
Second compound 10 µM, first compound 0.0316 µM
  viability, T/C: 59.3%
Second compound 10 µM, first compound 0.1 µM
  viability, T/C: 54.4%
Second compound 10 µM, first compound 0.316 µM
  viability, T/C: 53%
Second compound 10 µM, first compound 1 µM
  viability, T/C: 45.9%
Second compound 10 µM, first compound 3.16 µM
  viability, T/C: 43.2%
Second compound 10 µM, first compound 10 µM
  viability, T/C: 34%

## C=CC(=O)Nc1cc(Nc2nccc(-c3cn(C)c4ccccc34)n2)c(OC)cc1N(C)CCN(C)C + CNC(=O)c1ccc(Nc2nc(OC3CCCC3)c3c(-c4ccc5nc(C)oc5c4)c[nH]c3n2)c(OC)c1
Second compound 0.0316 µM
  IC50: > 300 nM
Second compound 0.1 µM
  IC50: > 300 nM
Second compound 0.316 µM
  IC50: > 300 nM
Second compound 1 µM
  IC50: 137 nM
Second compound 3.16 µM
  IC50: 91.8 nM
Second compound 10 µM
  IC50: 56.9 nM
Second compound 0.0316 µM, first compound 0.000949 µM
  viability, T/C: 118%
Second compound 0.0316 µM, first compound 0.003 µM
  viability, T/C: 123%
Second compound 0.0316 µM, first compound 0.00949 µM
  viability, T/C: 112%
Second compound 0.0316 µM, first compound 0.03 µM
  viability, T/C: 117%
Second compound 0.0316 µM, first compound 0.0949 µM
  viability, T/C: 113%
Second compound 0.0316 µM, first compound 0.3 µM
  viability, T/C: 85.8%
Second compound 0.1 µM, first compound 0.000949 µM
  viability, T/C: 109%
Second compound 0.1 µM, first compound 0.003 µM
  viability, T/C: 124%
Second compound 0.1 µM, first compound 0.00949 µM
  viability, T/C: 106%
Second compound 0.1 µM, first compound 0.03 µM
  viability, T/C: 109%
Second compound 0.1 µM, first compound 0.0949 µM
  viability, T/C: 110%
Second compound 0.1 µM, first compound 0.3 µM
  viability, T/C: 77.4%
Second compound 0.316 µM, first compound 0.000949 µM
  viability, T/C: 74%
Second compound 0.316 µM, first compound 0.003 µM
  viability, T/C: 74.3%
Second compound 0.316 µM, first compound 0.00949 µM
  viability, T/C: 72.7%
Second compound 0.316 µM, first compound 0.03 µM
  viability, T/C: 69.4%
Second compound 0.316 µM, first compound 0.0949 µM
  viability, T/C: 68.8%
Second compound 0.316 µM, first compound 0.3 µM
  viability, T/C: 52.5%
Second compound 1 µM, first compound 0.000949 µM
  viability, T/C: 69.7%
Second compound 1 µM, first compound 0.003 µM
  viability, T/C: 67.5%
Second compound 1 µM, first compound 0.00949 µM
  viability, T/C: 62%
Second compound 1 µM, first compound 0.03 µM
  viability, T/C: 61.6%
Second compound 1 µM, first compound 0.0949 µM
  viability, T/C: 53.2%
Second compound 1 µM, first compound 0.3 µM
  viability, T/C: 43.1%
Second compound 3.16 µM, first compound 0.000949 µM
  viability, T/C: 64.2%
Second compound 3.16 µM, first compound 0.003 µM
  viability, T/C: 60.8%
Second compound 3.16 µM, first compound 0.00949 µM
  viability, T/C: 56.5%
Second compound 3.16 µM, first compound 0.03 µM
  viability, T/C: 53%
Second compound 3.16 µM, first compound 0.0949 µM
  viability, T/C: 53.1%
Second compound 3.16 µM, first compound 0.3 µM
  viability, T/C: 43.8%
Second compound 10 µM, first compound 0.000949 µM
  viability, T/C: 60.9%
Second compound 10 µM, first compound 0.003 µM
  viability, T/C: 55.9%
Second compound 10 µM, first compound 0.00949 µM
  viability, T/C: 55%
Second compound 10 µM, first compound 0.03 µM
  viability, T/C: 54.7%
Second compound 10 µM, first compound 0.0949 µM
  viability, T/C: 47.4%
Second compound 10 µM, first compound 0.3 µM
  viability, T/C: 38.2%

Reference: PubChem BioAssay AID2060600 (Molecular Pharmacology Branch, DTP, NCI, 2025)
